Data from patent US7115665B1, “Inhibitors of endo-exonuclease activity for treating cancer” (Onocozyme Pharma, Inc., priority 2000, dated 2006).
Like-named read-outs stand apart in the source and are kept apart here.

Assays:
MCF7 cells = test: Cell survival, clonogenic assay; assay type: cell-based, human; settings: 1 week growth
HeLa cells = test: Cell survival, clonogenic assay; assay type: cell-based, human; settings: 1 week growth
[1] = test system: normal primary human cells (human primary fibroblast cells); test: Cell survival, clonogenic assay; assay type: cell-based; settings: same conditions (0.1 mM to 1 mM)
Text: These cells are normal human skin fibroblasts.

H661 NSCLC cells = test: cells; settings: Homo sapiens, read-out: LC50
[2] = test system: Lewis lung carcinoma (M47) primary tumour
Experimental: Lewis Lung Carcinoma Cell Line and Cell Culture: The Lewis lung carcinoma clone, M47, is a metastatic model. […] For tumour induction, cells were washed three times with phosphate buffer solution. They were then re-suspended at a dilution of 1×10^6 cells/0.1 ml. Only cells where viability was >95% were used for in vivo studies.
The mouse strain used in this study was C57BL/10. After one-week of acclimatization, cells were transplanted into the mice subcutaneously, as a suspension of tumour cells. All animals were inoculated at the same site.
To measure the effect of drugs on the primary tumour, drug solutions were administered by intraperitoneal (ip) injection every two days. Animals were subjected, on a daily basis, to general examination. Tumour growth was monitored over time. To determine the effect of drugs on tumour metastasis, the tumours were allowed to reach a size of 0.5–1.0 cm^3. Mice were randomized into various groups and the drugs were then given by ip. At the end of each experiment, animals were sacrificed and autopsied. Tumours, organs or both were removed under sterile conditions. Tumours were weighed. Organs were examined for gross pathological changes and then fixed in formalin. Lungs were fixed in Bouin's fixative and lung surface metastases were counted using a stereomicroscope.
The Lewis lung carcinoma clone, M47, with a high metastatic potential to the lung was used. […] The cell used was confirmed to be free of mycoplasma. Cells were maintained in RPMI-1640 medium supplemented with 10% fetal bovine serum and 1% penicillin-streptomycin, under 5% CO2. Cells were then propagated and stocks of the same passages were established and stored in liquid nitrogen. Oncozyme studies were done with the same stock of cells and same passage number.
For tumour induction, cells were grown to 70% confluence in complete medium and then collected using trypsin-EDTA solution [0.05% trypsin 0.53 mM EDTA-4Na in HBSS without Ca++. Mg++, and NaHCO3; Celigro No. 25–052-Li]. Cells were then centrifuged and washed three times with phosphate buffer solution [D-PBS, Ca++ and Mg++free; Cellgro No. 21–031-LV], and resuspended at a dilution of 0.1 to 1×10^6 cells/0.1 ml. Viability was examined by trypan blue staining and only cells in which the viability was >95% were used for in vivo studies.
The mouse strain used in this study is C57BL/10 from Charles River Inc. Animals were housed 5 per cage and were fed a diet of animal chow and water ad libitum. After one week acclimatization, LLC cells were transplanted subcutaneously, as a suspension of tumour cells [2−5×10^5 viable cells per 0.1 ml], in the axillary region of the right flank. All animals were inoculated at the same site. Animals were subjected, on a daily basis, to general examination. Tumour growth was monitored every second or third day using calipers. Parameters measured were: tumour measured along the longest axis (length) and the perpendicular shortest axis (width) and the relative tumour volume (in cm^3) was calculated by the formula: [length (cm)×(width cm)^2] (approximately 10–15 days), mice were randomized into one of the following groups:
The conditions for this group were identical to the group used for the experiments on metastases with the exception that the primary tumour was not removed, and the animals were maintained until the tumours reached a large size that justified animal sacrifice, or the animals manifested a discomfort that justified their sacrifice (reduced mobility, severe respiratory symptoms, etc.).
Control animals were given the same volume of saline solution [0.9% sodium chloride]. The dose of each drug was normalized to body weight per animal.
(§1) The pentamidine and cisplatinum were injected by intraperitoneal injections. Adriamycin was injected intravenously.

[3] = test system: Lewis lung carcinoma (M47) lung metastases; test: Lewis lung carcinoma lung metastases; assay type: in vivo, mouse (C57BL/10); settings: for Number of Metastases/Lung: Blank 34 ± 3
Text: All animals were inoculated at the same site.
Tumour growth was monitored over time. […] Tumours, organs or both were removed under sterile conditions. Tumours were weighed.
Animals were subjected to surgery to remove the primary tumour. The mice were lightly anesthetized with Forane. The skin overlying the tumour was cleaned with betadine and ethanols, in a laminar flow hood. A small skin incision (0.5–1 cm) was made using a sterile scalpel, and the tumour was carefully separated from the normal tissues (skin and muscle). Lewis Lung carcinoma cells (at early stage of growth; 1–3 weeks) are a well localized tumour and separation was easy to achieve without any significant damage to normal tissues. The tumour was removed, weighed and in some cases fixed for histopathology purposes. The wound was closed with surgical stainless steel clips (Autoclips; 9 mm; Clay Adams, Inc. Parsippany, N.J.). This site was further disinfected with betadine and the animal was housed as described earlier.
In this group, mice were randomized after surgery into a group of 5 per cage. Cages were randomly assigned to specific experimental groups. The mice were then labelled by numbers using the “ear punching” method. Mice were checked on a daily basis to ensure the absence of infection. Animals with discomfort were sacrificed immediately. For each experiment, an additional extra spared group of control mice was included to determine the optimal timing for sacrifice in order to obtain a significant number of well localized lung metastases. This group was subjected to the same experimental procedure as group 1 with the exception of drug treatment.
as §1
At the end of each experiment (a total of 5–8 weeks), animals were sacrificed by dislocation and autopsied. Tumours, organs or both were removed under sterile conditions [using a laminar flow hood]. Tumours were weighed. […] Lungs were fixed in 10% Bouin's fixative diluted in a formalin solution, and lung surface metastases were counted using a stereomicroscope at 4× magnification or a magnifying-glass, and in some cases lungs were embedded in paraffin wax according to standard procedures. Embedded tissues were used to confirm metastases and further examine histopathological changes.

[4] = mouse, in vivo, ip
Experimental: (§2) A preliminary study was conducted on non-tumour bearing mice to examine the maximal tolerable doses of pentamidine that can be used for antitumour studies. Three intraperitoneal injections (day 1, day 3, and day 5) were tested of 25, 50, 100 and 200 mg/Kg of body weight respectively.

[5] = test system: RIF-1 radiation-induced fibrosarcoma tumour; test: RIF tumour mouse model, polymer implant
[6] = Toxicity / maximal tolerable dose in non-tumour bearing mice; settings: 100 mg/Kg ip, days 1, 3, 5, FIG. 8
Experimental: as §2

With N=C(N)c1ccc(OCCCCCOc2ccc(C(=N)N)cc2)cc1 [Pentamidine, pentamidine] the “Concentration at which compound began to kill the cancer cells” value (MCF7 cells) was 0.1 mM, the Lethal concentration (MCF7 cells) was 1 mM and the “Concentration at which compound began to kill the cancer cells” value (HeLa cells) was 0.1 mM. The Lethal concentration (HeLa cells) was 1 mM, the “Effect on survival of normal primary human cells” value [1] was “no effect” and the CC50 (H661 NSCLC cells; NCI-H661, 48 h) was 150 µM. For the same compound, the CC50 (H661 NSCLC cells; NCI-H661, 96 h) was 70 µM, the “Antitumour activity compared with cisplatin at 3–4 mg/Kg/ip” value ([2]; FIG. 13) was “as active as cisplatin” and the “Primary tumour effect, 50 mg/Kg pentamidine combined with adriamycin” value ([2]; FIG. 18) was “some beneficial effect”. The “Tumour response, combined with 3 mg/Kg cisplatin” value ([2]; FIGS. 14a and 14b) was “some animals showed a complete regression of the tumours”, the “Inhibition of cancer growth compared with cisplatinum” value ([2]; daily injection, FIG. 7) was “as effective in inhibiting the cancer growth as cisplatinum” and the “Most active dose on growth of LLC primary tumour” value ([2]; ip, p<0,01, FIGS. 10 to 15) was 50 mg/kg. For the same compound, the “Number of Metastases/Lung” value ([3]; 25 mg/kg) was 23 ± 3, the “Inhibition of lung metastases versus saline-treated control” value ([3]; 50 mg/Kg, p<0.001, FIG. 16) was “more than 50%” and the “Number of Metastases/Lung” value ([3]; 50 mg/kg) was 10 ± 2. For the same compound, the “Effect on metastases, 50 mg/Kg/ip pentamidine with 4 mg/kg/ip cisplatin” value ([3]; FIG. 17) was “enhanced effect”, the “Effect on metastases, 50 mg/Kg/ip pentamidine with 5 mg/kg adriamycin/iv” value ([3]; FIG. 20) was “some beneficial effect” and the “Effect on lung metastases” value ([3]; doses of 10–25 mg/Kg) was “no significant effect”. The “Reduction of lung metastases” value ([3]; highest dosage tested) was “reduced metastases in a dose dependant manner by a factor of three”, the “Most active dose on lung metastases” value ([3]; p<0.01) was 50 mg/kg and the Highest tolerated dose [4] was 50 mg/kg. For the same compound, the “Efficacy at slowing tumour growth” value ([5]; biodegradeable polymer tumour implant, 100 mm^3 RIF tumours, FIG. 5) was “intermediate in its efficacy at slowing tumour growth between the saline control and 5-fluorouracil”, the “Side effects in test mice” value ([5]; polymer implant plus radiation) was “no obvious signs of any side effects” and the “Tumour growth, combination with radiation” value ([5]; polymer implant plus radiation 24 hours after implant, FIG. 6) was “no significant tumour growth for a much longer period”. For the same compound, the “Acute toxicity (death)” value [6] was “died because of acute toxicity”.
